Data as given in patent US20050250799A1, “Protease inhibitors for treatment of wrinkles” (priority 2004, published 2005).

Tests used:
[1] = test system: UVB-induced wrinkle formation; test: Example 6: UVB-induced skin wrinkling; type: in vivo, Skh-1 hairless mice; conditions: UVB + 0.1% in 25% DMSO + 75% ethanol, 100 μl on back skin three times weekly, 10 weeks; category 0 (no wrinkle) to 4 (severe wrinkle)
[2] = test system: UVB-induced vessel dilation; test: Example 6: dermal blood vessel area (CD31 staining) after UVB; type: in vivo, Skh-1 hairless mice; conditions: UVB + 0.1% in 25% DMSO + 75% ethanol, 100 μl on back skin three times weekly, 10 weeks; dermis
[3] = test system: back skin of mice; test: Example 5: skin irritation score on back skin; type: in vivo, mice (FVB strain); conditions: 0.1% in 25% DMSO + 75% ethanol, 5 μl on back skin, score 0 (no erythema) to 4
Experimental: The hair of the back skin of mice (FVB strain, female, 7 weeks of age, n=3/group) was clipped by an electric clipper on day 0. 5 μl of test sample solution (˜1 cm diameter) was applied on the back skin. After 24 hours (day 1), skin irritation was measured on the basis of a scoring system (0: no erythema; 1: very slight erythema; 2: well-defined erythema; 3: moderate erythema; 4: several erythema and edema) and a second dose administered. After a second 24 hours (day 2), skin irritation was measured and a third dose administered. After a third 24 hours (day 3), skin irritation was again measured.

[4] = test system: UVB-induced wrinkle formation; test: Example 3: UVB-induced skin wrinkling; type: in vivo, hairless Skh-1 mice; conditions: 100 μl on back skin three times weekly, 10 weeks, category 0 (no wrinkle) to 4 (severe wrinkle)
Experimental: (§1) Five groups of mice (7-week-old female hairless Skh-1 mice, n=3/group) were used: group 1: UVB+1% ucf-101 in DMSO; group 2: UVB+DMSO control; group 3: UVB+0.1% ucf-101 in acetone; group 4: UVB+acetone control; group 5: no UVB control.
(§2) Groups 1, 2, 3 and 4 were exposed to UVB irradiation using fluorescent lamps (Southern New England Ultraviolet) to deliver 0.35 mW/cm^2 at the dorsal skin surface of the mice. After irradiation, the indicated samples (100 μl each) for each group were applied to the back skin. This procedure was repeated three times weekly for ten weeks, to simulate chronic UVB exposure. […] The total cumulative dose was 6.54 J/cm^2 UVB.
(§3) After 10 weeks, skin wrinkling was evaluated using five categories (0: no wrinkle; 1: slight wrinkle; 2: clear wrinkle; 3: strong wrinkle; 4: severe wrinkle). Mice of group 1 and group 2 were sacrificed and back skin samples were snap-frozen in liquid nitrogen. Immunohistochemical staining was performed on 7-micrometer frozen sections using a monoclonal rat anti-mouse CD31 antibody (BD Pharmingen). Representative sections were obtained from UVB irradiated mice and were analyzed using a Nikon E-600 microscope. Images were captured with a Spot digital camera (Diagnostic Instruments), and morphometric analyses were performed using the IP-LAB software. Areas occupied by blood vessels were determined in the dermis.

[5] = test system: various other serine proteases; conditions: various other serine proteases tested; cited from earlier work
[6] = test system: mice ears; test: Example 1: effect on ear thickness (skin irritancy); type: in vivo, mice (FVB strain); conditions: for Left ear thickness (mean): 10 μl on left ear
Experimental: Control thickness of mice ears (FVB strain, male, 7 weeks of age, n=3/group) was measured with a thickness gauge (Mitsutoyo Corp.). After measuring the thickness of both ears, 10 μl of ucf-101 solution (1.0% or 0.1%) was applied to the left ear and 10 μl of solvent was applied to the right ear. Ear thickness was measured for three consecutive days after administration.

[7] = molecular target: T1, Omi/HtrA2 (His-Omi 134-458) (Homo sapiens, UniProt O43464); conditions: cited from earlier work
T1 construct: His
T1 sequence (O43464 134-458): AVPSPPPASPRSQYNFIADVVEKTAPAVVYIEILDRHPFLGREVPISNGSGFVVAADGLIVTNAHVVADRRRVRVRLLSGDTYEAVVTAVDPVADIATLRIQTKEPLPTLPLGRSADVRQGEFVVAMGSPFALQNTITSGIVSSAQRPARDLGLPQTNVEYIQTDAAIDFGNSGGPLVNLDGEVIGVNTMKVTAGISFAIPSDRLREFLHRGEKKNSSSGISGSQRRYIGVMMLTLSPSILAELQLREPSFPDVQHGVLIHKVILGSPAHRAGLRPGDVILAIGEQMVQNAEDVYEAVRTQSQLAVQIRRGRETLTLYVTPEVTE

[8] = test system: UVB-irradiated mice ears; test: Example 2: ear thickness on UVB-exposed skin; type: in vivo, mice (Swiss Webster strain); conditions: 1% in DMSO; for Left ear thickness (mean): UVB 80 mJ/cm^2, 5 μl on days 0, 1, 2
Experimental: The ear thickness of mice (Swiss Webster strain, male, 7 weeks of age, n=3/group) was measured with a thickness gauge (Mitsutoyo Corp.) on day 0. After measuring the thickness of both ears, both ears were UVB-irradiated (80 mJ/cm^2). 5 μl of 1% ucf-101 in DMSO was applied to the left ear and 5 μl of DMSO was applied to the right ear. After 24 hours (day 1), ear thickness was measured and a second dose administered (left ear 1% ucf-101 in DMSO; right ear: DMSO). After a second 24 hours (day 2), ear thickness was again measured and a third dose administered (left ear 1% ucf-101 in DMSO; right ear: DMSO). Ear thickness was then monitored over four additional consecutive days (days 3-6).

[9] = test system: caspase-9 (−/−) null fibroblasts; conditions: cited from earlier work
[10] = test system: UVB-induced vessel dilation; test: Example 3: dermal blood vessel area (CD31 staining) after UVB; type: in vivo, hairless Skh-1 mice; conditions: UVB + 1% in DMSO, 100 μl on back skin three times weekly, 10 weeks; dermis
Experimental: as §1, §2, §3

[11] = test system: mice ears; test: Example 4: effects of test samples on ear thickness; type: in vivo, mice (FVB strain); conditions: 0.1% in 25% DMSO + 75% ethanol, 10 μl on days 0, 1, 2
Experimental: Control thickness of mice ears (FVB strain, female, 7 weeks of age, n=3/group) was measured with a thickness gauge (Mitsutoyo Corp.) on day 0. After measuring the thickness of both ears, 10 μl of test sample solution was applied to the left ear and 10 μl of solvent was applied to the right ear. After 24 hours (day 1), ear thickness was measured and a second dose administered (left ear: test solution, right ear: solvent). After a second 24 hours (day 2), ear thickness was measured and a third dose administered (left ear: test solution, right ear: solvent).

[12] = molecular target: T2, caspase 1 (Homo sapiens, UniProt P29466); conditions: cited from earlier work
T2 sequence (P29466 120-297 limits assumed): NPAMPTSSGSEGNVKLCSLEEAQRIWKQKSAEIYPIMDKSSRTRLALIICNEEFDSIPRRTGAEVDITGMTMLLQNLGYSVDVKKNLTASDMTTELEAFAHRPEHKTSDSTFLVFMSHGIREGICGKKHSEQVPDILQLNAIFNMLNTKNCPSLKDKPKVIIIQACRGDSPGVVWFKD
T2 sequence (P29466 317-404 limits assumed): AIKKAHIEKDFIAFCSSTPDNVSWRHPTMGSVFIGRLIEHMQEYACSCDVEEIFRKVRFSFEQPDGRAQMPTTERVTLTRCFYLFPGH

[13] = molecular target: T3, caspase 4 (Homo sapiens, UniProt P49662); conditions: cited from earlier work
T3 sequence (P49662 81-270 limits assumed): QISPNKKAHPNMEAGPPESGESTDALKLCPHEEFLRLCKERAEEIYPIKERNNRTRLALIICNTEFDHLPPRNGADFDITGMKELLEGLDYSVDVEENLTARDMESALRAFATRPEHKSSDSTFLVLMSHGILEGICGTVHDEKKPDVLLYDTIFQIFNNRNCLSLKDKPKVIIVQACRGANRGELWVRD
T3 sequence (P49662 290-377 limits assumed): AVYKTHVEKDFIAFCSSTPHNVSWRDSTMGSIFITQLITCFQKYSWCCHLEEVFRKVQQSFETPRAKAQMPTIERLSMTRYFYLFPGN

[14] = molecular target: T4, caspase 7 (Homo sapiens, UniProt P55210); conditions: cited from earlier work
T4 sequence (P55210 24-198 limits assumed): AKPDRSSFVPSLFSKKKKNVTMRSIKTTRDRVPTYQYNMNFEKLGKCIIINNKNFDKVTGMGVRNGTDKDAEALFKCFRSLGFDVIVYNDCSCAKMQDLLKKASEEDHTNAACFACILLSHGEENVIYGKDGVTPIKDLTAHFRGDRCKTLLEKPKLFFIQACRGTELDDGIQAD
T4 sequence (P55210 207-303 limits assumed): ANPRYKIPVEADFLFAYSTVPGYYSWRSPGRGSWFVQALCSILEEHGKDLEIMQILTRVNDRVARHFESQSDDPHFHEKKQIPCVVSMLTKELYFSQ

[15] = molecular target: T5, caspase 3 (Homo sapiens, UniProt P42574); conditions: cited from earlier work
T5 sequence (P42574 29-175 limits assumed): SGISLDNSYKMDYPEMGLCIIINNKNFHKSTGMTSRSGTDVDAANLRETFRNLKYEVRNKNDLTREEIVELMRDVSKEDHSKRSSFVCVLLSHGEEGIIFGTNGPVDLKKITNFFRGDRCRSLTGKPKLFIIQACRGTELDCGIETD
T5 sequence (P42574 176-277 limits assumed): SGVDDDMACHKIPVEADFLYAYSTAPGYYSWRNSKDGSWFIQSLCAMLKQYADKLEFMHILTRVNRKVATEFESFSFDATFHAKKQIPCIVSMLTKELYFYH

CC(C)C[C@H](CC(=O)NO)C(=O)N[C@@H](Cc1ccc2ccccc2c1)C(=O)N[C@@H](C)C(N)=O [TAPI-0]
Wrinkle category (mean) [1]: 1.00
Percent of vessel area (mean) [2]: 8.9%

NC[C@H]1CC[C@H](C(=O)O)CC1 [Tranexamic acid]
skin irritation score ([3]; day 0): 0
skin irritation score ([3]; day 1): 0
skin irritation score ([3]; day 2): 0
skin irritation score ([3]; day 3): 0
Wrinkle category (mean) [1]: 2.00
Percent of vessel area (mean) [2]: 8.7%

O=C1C(=Cc2ccc(-c3ccccc3[N+](=O)[O-])o2)C(=O)N(c2ccccc2)C(=S)N1c1ccccc1 [Ucf-101]
Wrinkle category (mean) ([4]; UVB + 0.1% in acetone): 1.67
Wrinkle category (mean) ([4]; UVB + 1% in DMSO): 1.33
IC50 [5]: 200 µM
Left ear thickness (mean) ([6]; 0.1% in acetone, day 0 (before application)): 29.0 ×0.01 mm
Left ear thickness (mean) ([6]; 0.1% in acetone, day 1): 30.0 ×0.01 mm
Left ear thickness (mean) ([6]; 0.1% in acetone, day 2): 29.3 ×0.01 mm
Left ear thickness (mean) ([6]; 0.1% in acetone, day 3): 29.0 ×0.01 mm
irritancy (ear thickness compared to solvent alone) ([6]; 1% in DMSO or 0.1% in acetone): not an irritant
Left ear thickness (mean) ([6]; 1% in DMSO, day 0 (before application)): 28.0 ×0.01 mm
Left ear thickness (mean) ([6]; 1% in DMSO, day 1): 28.7 ×0.01 mm
Left ear thickness (mean) ([6]; 1% in DMSO, day 2): 28.7 ×0.01 mm
Left ear thickness (mean) ([6]; 1% in DMSO, day 3): 28.3 ×0.01 mm
IC50 [7]: 9.5 µM
skin irritation score ([3]; day 0): 0
skin irritation score ([3]; day 1): 0
skin irritation score ([3]; day 2): 0
skin irritation score ([3]; day 3): 0
Left ear thickness (mean) ([8]; day 0 (before UVB and application)): 31.0 ×0.01 mm
Left ear thickness (mean) ([8]; day 1): 36.3 ×0.01 mm
Left ear thickness (mean) ([8]; day 2): 40.0 ×0.01 mm
Left ear thickness (mean) ([8]; day 3): 42.3 ×0.01 mm
Left ear thickness (mean) ([8]; day 4): 42.7 ×0.01 mm
Left ear thickness (mean) ([8]; day 5): 39.3 ×0.01 mm
Left ear thickness (mean) ([8]; day 6): 38.3 ×0.01 mm
ear thickness (irritancy) compared to control ([8]; UVB-exposed ears): did not increase ear thickness
Wrinkle category (mean) [1]: 1.00
Percent of vessel area (mean) [2]: 4.7%
block of Omi/HtrA2 induced cell death [9]: block Omi/HtrA2 induced cell death
Percent of vessel area (mean) [10]: 7.1%
Left ear thickness (mean) ([11]; day 0 (before application)): 25.7 ×0.01 mm
Left ear thickness (mean) ([11]; day 1): 26.3 ×0.01 mm
Left ear thickness (mean) ([11]; day 2): 27.3 ×0.01 mm
Left ear thickness (mean) ([11]; day 3): 28.3 ×0.01 mm

Ac-YVAD-CHO
Ki [12]: ~0.01 µM
Ki [13]: ~0.01 µM
Ki [14]: ≥ 50 µM
Ki [15]: ≥ 50 µM

zVAD-FMK
inhibition [12]: inhibits
inhibition [13]: inhibits
inhibition [14]: inhibits
inhibition [15]: inhibits
Wrinkle category (mean) [1]: 1.67
Percent of vessel area (mean) [2]: 8.8%
